Counter-ions that a name gives are not always drawn. Where only a bound is given, the exact number is not on record here.

The first assay deals with T1, recombinant human arginase 2 (Homo sapiens, UniProt P78540).
T1 construct: made in house; host or cells: E. coli
T1 sequence (P78540 23-354): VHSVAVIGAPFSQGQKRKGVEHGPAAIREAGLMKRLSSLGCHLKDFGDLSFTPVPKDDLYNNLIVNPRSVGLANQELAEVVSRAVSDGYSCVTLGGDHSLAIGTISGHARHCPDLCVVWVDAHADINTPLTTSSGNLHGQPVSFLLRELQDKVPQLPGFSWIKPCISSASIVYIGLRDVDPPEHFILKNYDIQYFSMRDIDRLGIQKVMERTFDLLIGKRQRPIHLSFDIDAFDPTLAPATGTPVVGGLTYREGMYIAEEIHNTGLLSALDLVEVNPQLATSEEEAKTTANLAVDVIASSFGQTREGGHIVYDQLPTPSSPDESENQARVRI
As to the kind of experiment: Human arginase inhibition assay (colorimetric urea detection), arginase 2. Format: biochemical. The conditions noted are these: IC50 class, hydrochloride salts, 1 h at 37° C., pH 7.4, 10 mM L-arginine, 200 μM MnCl2, read-out: Activity Class (ARG II). How it is done:
(§1) The inhibitory activities of the compounds of the invention were assessed using recombinant human arginase 1 and 2. Both enzymes were biosynthesized using a prokaryotic expression system (E. coli) and purified by fast protein liquid chromatography (FPLC). The compounds were screened in 96-well plates at the total reaction volume of 100 μL. Briefly, recombinant enzymes were incubated with the tested compounds for 1 h at 37° C. in the reaction buffer (100 mM sodium phosphate buffer, 130 mM NaCl, 1 mg/mL BSA, pH 7.4) containing substrate (10 mM L-arginine hydrochloride) and cofactor (200 μM MnCl2). The assay is based on the detection of urea, which is generated during the conversion of L-arginine into L-ornithine catalyzed by ARG1 or ARG2. The colorimetrically detectable product was developed by adding a mixture of reagent A (4 mM oPA, 50 mM boric acid, 1 M sulfuric acid, 0.03% Brij-35) and reagent B (4 mM NED, 50 mM boric acid, 1 M sulfuric acid, 0.03% Brij-35) in equal proportions. The absorbance for each well was measured at 515 nm and the enzyme inhibition was calculated. The urea production in the absence of any tested compound was considered as maximal enzyme activity. The absorbance at the absence of arginase (background) was subtracted from all the values. Normalized values were analyzed using GraphPad Prism 7.0 software by plotting inhibition curves and determining the IC50 values.
(§2) The inhibitory activity toward humane arginase 1 of the hydrochloride salts of the exemplary compounds according to the invention is presented in Table 5.
The inhibitory activity toward humane arginase 2 of the hydrochloride salts of the selected exemplary compounds according to the invention is presented in Table 6.
On to `N[C@@H](Cc1ccccc1)C(=O)N1C[C@@H](CCB(O)O)C[C@](N)(C(=O)O)C1` [Example 11, (3R,5S)-1-(L-Phenylalanyl)-3-amino-5-(2-boronoethyl)piperidine-3-carboxylic acid dihydrochloride], for which the IC50 lay in the range of 1000 to 10000 nM.

For another assay, the target named is T2, recombinant human arginase 1 (Homo sapiens, UniProt P05089).
T2 construct: made in house; host or cells: E. coli
T2 sequence (P05089 1-322): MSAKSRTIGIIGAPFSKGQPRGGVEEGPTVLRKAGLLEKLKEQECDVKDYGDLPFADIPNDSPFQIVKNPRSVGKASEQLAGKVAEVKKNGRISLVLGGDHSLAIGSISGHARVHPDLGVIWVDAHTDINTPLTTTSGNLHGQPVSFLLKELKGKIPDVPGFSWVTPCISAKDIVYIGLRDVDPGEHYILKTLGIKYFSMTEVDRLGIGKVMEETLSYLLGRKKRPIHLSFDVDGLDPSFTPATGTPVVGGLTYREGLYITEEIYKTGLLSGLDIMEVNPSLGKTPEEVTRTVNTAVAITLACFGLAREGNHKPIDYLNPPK
In words: Human arginase inhibition assay (colorimetric urea detection), arginase 1. Format: biochemical. Conditions: IC50 class, hydrochloride salts, 1 h at 37° C., pH 7.4, 10 mM L-arginine, 200 μM MnCl2, read-out: Activity Class (ARG I). How it is done:
as §1, §2
For `NC(=O)NCCC[C@H](N)C(=O)N1C[C@@H](CCB(O)O)C[C@](N)(C(=O)O)C1` [Example 21, (3R,5S)-3-Amino-1-((S)-2-amino-5-ureidopentanoyl)-5-(2-boronoethyl) piperidine-3-carboxylic acid dihydrochloride], the IC50 was 250 to 499 nM. Still for that read-out and setting: then `NC(=O)CC[C@H](N)C(=O)N1C[C@@H](CCB(O)O)C[C@](N)(C(=O)O)C1` [Example 16, (3R,5S)-1-(L-Glutaminyl)-3-amino-5-(2-boronoethyl)piperidine-3-carboxylic acid dihydrochloride], with 250 to 499 nM; and `NC(=O)C[C@H](N)C(=O)N1C[C@@H](CCB(O)O)C[C@](N)(C(=O)O)C1` [Example 26, (3R,5S)-1-(L-Asparaginyl)-3-amino-5-(2-boronoethyl)piperidine-3-carboxylic acid dihydrochloride], with 250 to 499 nM. For the molecule `Cn1cc(C[C@@H](N)C(=O)N2C[C@@H](CCB(O)O)C[C@](N)(C(=O)O)C2)c2ccccc21` [Example 24, (3R,5S)-3-amino-5-(2-boronoethyl)-1-(1-methyl-D-tryptophyl)piperidine-3-carboxylic acid dihydrochloride], the IC50 was 500 to 999 nM.

Regarding `N[C@]1(C(=O)O)C[C@H](CCB(O)O)CN(C(=O)[C@@H]2CCCN2)C1` [Example 4, (3R,5S)-1-(L-Prolyl)-3-amino-5-(2-boronoethyl)piperidine-3-carboxylic acid dihydrochloride], the IC50 fell in the range of 250 to 499 nM. Regarding `N[C@@H](Cc1c[nH]c2ccccc12)C(=O)N1C[C@@H](CCB(O)O)C[C@](N)(C(=O)O)C1` [Example 18, (3R,5S)-1-(L-Tryptophyl)-3-amino-5-(2-boronoethyl)piperidine-3-carboxylic acid dihydrochloride], the IC50 lay in the range of 250 to 499 nM. Still for that read-out and setting: the result for `COC(=O)[C@@]1(N)C[C@H](CCB(O)O)CN(C(=O)[C@H](C)N)C1` [Example 28, (2-((3S,5R)-1-(L-Alanyl)-5-amino-5-(methoxycarbonyl)piperidin-3-yl)ethyl) boronic acid dihydrochloride] reads more than 10000 nM; that for `CC[C@H](C)[C@H](N)C(=O)N1C[C@@H](CCB(O)O)C[C@](N)(C(=O)O)C1` [Example 9, (3R,5S)-1-(L-Isoleucyl)-3-amino-5-(2-boronoethyl)piperidine-3-carboxylic acid dihydrochloride], 500 to 999 nM. The same measure, in the same setting: the result for `N[C@@H](Cc1ccccc1)C(=O)N1C[C@@H](CCB(O)O)C[C@](N)(C(=O)O)C1` [Example 11, (3R,5S)-1-(L-Phenylalanyl)-3-amino-5-(2-boronoethyl)piperidine-3-carboxylic acid dihydrochloride] reads 1 to 249 nM; that for `C[C@H](N)C(=O)N1C[C@H](CCB(O)O)C[C@@](N)(C(=O)O)C1` [Example 2, (3S,5R)-1-(L-Alanyl)-3-amino-5-(2-boronoethyl)piperidine-3-carboxylic acid dihydrochloride], more than 10000 nM. The same measure, in the same setting: the result for `C[C@@H](O)[C@H](N)C(=O)N1C[C@@H](CCB(O)O)C[C@](N)(C(=O)O)C1` [Example 12, (3R,5S)-1-(L-Threonyl)-3-amino-5-(2-boronoethyl)piperidine-3-carboxylic acid dihydrochloride] reads 250 to 499 nM; that for `CC(C)C[C@H](N)C(=O)N1C[C@@H](CCB(O)O)C[C@](N)(C(=O)O)C1` [Example 8, (3R,5S)-1-(L-Leucyl)-3-amino-5-(2-boronoethyl)piperidine-3-carboxylic acid dihydrochloride], 500 to 999 nM; that for `CCC[C@H](N)C(=O)N1C[C@@H](CCB(O)O)C[C@](N)(C(=O)O)C1` [Example 25, (3R,5S)-3-Amino-1-((S)-2-aminopentanoyl)-5-(2-boronoethyl)piperidine-3-carboxylic acid dihydrochloride], 250 to 499 nM. In the case of `N[C@@H](CCC(=O)O)C(=O)N1C[C@@H](CCB(O)O)C[C@](N)(C(=O)O)C1` [Example 15, (3R,5S)-1-(L-Glutamyl)-3-amino-5-(2-boronoethyl)piperidine-3-carboxylic acid dihydrochloride], the IC50 fell in the range of 500 to 999 nM. In the case of `CC(C)[C@H](N)C(=O)N1C[C@@H](CCB(O)O)C[C@](N)(C(=O)O)C1` [Example 5, (3R,5S)-1-(L-Valyl)-3-amino-5-(2-boronoethyl)piperidine-3-carboxylic acid dihydrochloride], the IC50 fell in the range of 250 to 499 nM. As to `C[C@H](N)C(=O)N1C[C@H](CCB(O)O)C[C@](N)(C(=O)O)C1` [Example 32, (3R,5R)-1-(L-Alanyl)-3-amino-5-(2-boronoethyl)piperidine-3-carboxylic acid dihydrochloride], the IC50 was more than 10000 nM. With `CSCC[C@H](N)C(=O)N1C[C@@H](CCB(O)O)C[C@](N)(C(=O)O)C1` [Example 17, (3R,5S)-1-(L-Methionyl)-3-amino-5-(2-boronoethyl)piperidine-3-carboxylic acid dihydrochloride], the IC50 was 250 to 499 nM. As to `N[C@@H](CC(=O)O)C(=O)N1C[C@@H](CCB(O)O)C[C@](N)(C(=O)O)C1` [Example 14, (3R,5S)-1-(L-Aspartyl)-3-amino-5-(2-boronoethyl)piperidine-3-carboxylic acid dihydrochloride], the IC50 fell in the range of 500 to 999 nM. For the molecule `C[C@H](N)C(=O)N1C[C@@H](CCB(O)O)C[C@@](N)(C(=O)O)C1` [Example 33, (3S,5S)-1-(L-Alanyl)-3-amino-5-(2-boronoethyl)piperidine-3-carboxylic acid dihydrochloride], the IC50 was more than 10000 nM.

For the molecule `C[C@@H](N)C(=O)N1C[C@@H](CCB(O)O)C[C@](N)(C(=O)O)C1` [Example 23, (3R,5S)-1-(D-Alanyl)-3-amino-5-(2-boronoethyl)piperidine-3-carboxylic acid dihydrochloride], the IC50 was in the range of 1000 to 10000 nM. Still for that read-out and setting: then `N=C(N)NCCC[C@H](N)C(=O)N1C[C@@H](CCB2OC(=O)CC(CC(=O)O)(C(=O)O)O2)C[C@](N)(C(=O)O)C1` (stereo partly drawn) [Example 29, (3R,5S)-1-(L-Arginyl)-3-amino-5-(2-(4-carboxy-4-(carboxymethyl)-6-oxo-1,3,2-dioxaborinan-2-yl)ethyl)piperidine-3-carboxylic acid trihydrochloride], with 1 to 249 nM; and `N[C@@H](Cc1ccc(O)cc1)C(=O)N1C[C@@H](CCB(O)O)C[C@](N)(C(=O)O)C1` [Example 10, (3R,5S)-1-(L-Tyrosyl)-3-amino-5-(2-boronoethyl)piperidine-3-carboxylic acid dihydrochloride], with 250 to 499 nM. `CNCC(=O)N1C[C@@H](CCB(O)O)C[C@](N)(C(=O)O)C1` [Example 27, (3R,5S)-3-Amino-5-(2-boronoethyl)-1-(methylglycyl)piperidine-3-carboxylic acid dihydrochloride]: the IC50 was in the range of 250 to 499 nM.

Consider `C[C@@H]1N(C(=O)[C@@H](N)CCCNC(=N)N)C[C@@H](CCB(O)O)C[C@]1(N)C(=O)O` [Example 31, (2S,3R,5S)-1-(L-Arginyl)-3-amino-5-(2-boronoethyl)-2-methylpiperidine-3-carboxylic acid trihydrochloride], for which the IC50 fell in the range of 250 to 499 nM. Still for that read-out and setting: the result for `N[C@@H](CS)C(=O)N1C[C@@H](CCB(O)O)C[C@](N)(C(=O)O)C1` [Example 19, (3R,5S)-1-(L-Cysteinyl)-3-amino-5-(2-boronoethyl)piperidine-3-carboxylic acid dihydrochloride] reads 500 to 999 nM; that for `NCCC[C@H](N)C(=O)N1C[C@@H](CCB(O)O)C[C@](N)(C(=O)O)C1` [Example 22, (3R,5S)-3-Amino-5-(2-boronoethyl)-1-((S)-2,5-diaminopentanoyl)piperidine-3-carboxylic acid trihydrochloride], 250 to 499 nM.

For the origin of these results see patent US10851099B2, “Dipeptide piperidine derivatives” (OncoArendi Therapeutics S.A., priority 2018, dated 2020).
